# Experiments:
# Format in all cases: biochemical
# Human NOS-2 = Human NOS-2 (Homo sapiens, UniProt P35228); assay: Human NOS-2 assay ([3H]-arginine to [3H]-citrulline conversion); details: 60 min at 37° C., 2.5 μM L-[3H]arginine; * mean of 3, ** mean of 2 determinations; read-out: Human iNOS, IC50
# Murine NOS-2 (iNOS) = biological target: T1, Murine NOS-2 (iNOS) (Mus musculus, UniProt P29477); assay: Murine NOS-2 (iNOS) assay ([3H]-arginine to [3H]-citrulline conversion); details: recombinant murine NOS-2, 20 min at 37° C., 10 uM L-[3H]arginine; ** mean of 2 determinations
# T1 construct: purchased Cayman Chemical 60864; host or cells: E. coli
# T1 sequence (P29477 whole entry): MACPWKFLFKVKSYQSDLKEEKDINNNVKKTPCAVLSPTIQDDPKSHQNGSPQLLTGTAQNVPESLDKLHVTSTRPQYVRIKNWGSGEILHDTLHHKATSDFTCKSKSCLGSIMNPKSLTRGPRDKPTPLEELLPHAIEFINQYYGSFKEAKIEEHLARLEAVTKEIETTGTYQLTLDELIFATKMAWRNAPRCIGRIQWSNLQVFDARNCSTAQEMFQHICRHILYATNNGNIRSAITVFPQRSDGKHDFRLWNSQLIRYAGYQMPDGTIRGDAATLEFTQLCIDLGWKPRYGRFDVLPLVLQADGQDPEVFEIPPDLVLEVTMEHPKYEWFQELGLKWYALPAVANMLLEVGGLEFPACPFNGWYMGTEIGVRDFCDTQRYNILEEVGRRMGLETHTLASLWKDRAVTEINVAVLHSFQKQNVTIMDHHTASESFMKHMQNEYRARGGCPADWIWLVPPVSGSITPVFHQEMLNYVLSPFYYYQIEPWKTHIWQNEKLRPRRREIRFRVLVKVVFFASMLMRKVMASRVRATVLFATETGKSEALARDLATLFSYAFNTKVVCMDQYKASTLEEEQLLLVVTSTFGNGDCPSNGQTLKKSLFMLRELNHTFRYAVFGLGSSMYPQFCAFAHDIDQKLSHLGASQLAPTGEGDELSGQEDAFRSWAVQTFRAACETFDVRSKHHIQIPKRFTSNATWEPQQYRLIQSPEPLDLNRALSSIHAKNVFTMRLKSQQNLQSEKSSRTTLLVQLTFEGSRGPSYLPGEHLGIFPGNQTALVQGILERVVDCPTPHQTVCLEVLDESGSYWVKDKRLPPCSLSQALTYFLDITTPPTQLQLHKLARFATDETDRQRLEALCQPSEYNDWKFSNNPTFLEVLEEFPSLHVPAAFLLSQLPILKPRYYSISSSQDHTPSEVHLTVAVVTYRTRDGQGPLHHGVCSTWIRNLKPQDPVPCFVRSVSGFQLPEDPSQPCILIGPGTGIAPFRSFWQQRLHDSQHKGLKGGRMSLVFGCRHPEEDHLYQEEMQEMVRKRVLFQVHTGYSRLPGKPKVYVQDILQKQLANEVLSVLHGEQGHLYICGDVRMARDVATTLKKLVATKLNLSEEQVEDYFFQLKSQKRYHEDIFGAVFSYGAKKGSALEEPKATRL
# Bovine NOS-3 (eNOS) = biological target: T2, Bovine NOS-3 (eNOS) (Bos taurus, UniProt P29473); assay: Bovine NOS-3 (eNOS) assay ([3H]-arginine to [3H]-citrulline conversion); details: recombinant bovine NOS-3, 120 min, 10 μM L-[3H]arginine; ** mean of 2 determinations
# T2 construct: purchased Cayman Chemical 60880; host or cells: Baculovirus / Sf9 cells
# T2 sequence (P29473 2-1205): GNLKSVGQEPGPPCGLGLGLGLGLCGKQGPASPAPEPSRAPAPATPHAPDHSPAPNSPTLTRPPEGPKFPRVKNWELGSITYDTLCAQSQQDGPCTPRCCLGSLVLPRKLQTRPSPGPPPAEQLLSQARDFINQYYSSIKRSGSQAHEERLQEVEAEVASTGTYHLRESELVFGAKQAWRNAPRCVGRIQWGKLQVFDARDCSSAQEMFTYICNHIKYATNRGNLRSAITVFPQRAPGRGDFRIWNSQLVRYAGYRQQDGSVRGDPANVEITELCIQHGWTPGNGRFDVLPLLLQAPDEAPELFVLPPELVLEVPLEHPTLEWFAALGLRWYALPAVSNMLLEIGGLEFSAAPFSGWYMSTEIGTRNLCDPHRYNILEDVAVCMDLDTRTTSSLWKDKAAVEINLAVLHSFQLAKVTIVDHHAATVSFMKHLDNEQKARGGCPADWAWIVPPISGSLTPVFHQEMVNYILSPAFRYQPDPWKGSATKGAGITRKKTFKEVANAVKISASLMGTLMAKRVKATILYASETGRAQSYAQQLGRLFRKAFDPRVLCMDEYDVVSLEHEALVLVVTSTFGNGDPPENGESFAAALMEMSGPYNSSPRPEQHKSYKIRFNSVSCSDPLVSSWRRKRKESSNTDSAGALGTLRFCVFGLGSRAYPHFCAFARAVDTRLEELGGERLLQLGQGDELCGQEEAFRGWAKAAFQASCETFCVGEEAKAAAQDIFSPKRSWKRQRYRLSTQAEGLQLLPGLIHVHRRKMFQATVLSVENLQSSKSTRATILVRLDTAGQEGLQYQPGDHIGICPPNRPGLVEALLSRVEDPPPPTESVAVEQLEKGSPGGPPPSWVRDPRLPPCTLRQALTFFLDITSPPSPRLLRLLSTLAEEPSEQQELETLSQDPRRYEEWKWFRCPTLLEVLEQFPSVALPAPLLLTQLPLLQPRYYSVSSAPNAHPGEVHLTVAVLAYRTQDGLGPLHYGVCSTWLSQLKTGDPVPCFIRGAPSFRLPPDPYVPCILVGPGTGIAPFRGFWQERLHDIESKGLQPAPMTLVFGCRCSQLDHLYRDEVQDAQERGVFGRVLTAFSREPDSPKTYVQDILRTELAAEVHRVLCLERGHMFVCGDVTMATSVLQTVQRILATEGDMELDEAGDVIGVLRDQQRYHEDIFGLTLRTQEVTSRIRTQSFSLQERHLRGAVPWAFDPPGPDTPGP
# Rat NOS-1 (nNOS) = biological target: T3, Rat NOS-1 (nNOS) (Rattus norvegicus, UniProt P29476); assay: Rat NOS-1 (nNOS) assay ([3H]-arginine to [3H]-citrulline conversion); details: recombinant rat nNOS, 20 min at 37° C., 2 μM L-[3H]arginine; * mean of 3 determinations
# T3 construct: purchased Cayman Chemical 60870; host or cells: Baculovirus / Sf9 cells
# T3 sequence (P29476 whole entry): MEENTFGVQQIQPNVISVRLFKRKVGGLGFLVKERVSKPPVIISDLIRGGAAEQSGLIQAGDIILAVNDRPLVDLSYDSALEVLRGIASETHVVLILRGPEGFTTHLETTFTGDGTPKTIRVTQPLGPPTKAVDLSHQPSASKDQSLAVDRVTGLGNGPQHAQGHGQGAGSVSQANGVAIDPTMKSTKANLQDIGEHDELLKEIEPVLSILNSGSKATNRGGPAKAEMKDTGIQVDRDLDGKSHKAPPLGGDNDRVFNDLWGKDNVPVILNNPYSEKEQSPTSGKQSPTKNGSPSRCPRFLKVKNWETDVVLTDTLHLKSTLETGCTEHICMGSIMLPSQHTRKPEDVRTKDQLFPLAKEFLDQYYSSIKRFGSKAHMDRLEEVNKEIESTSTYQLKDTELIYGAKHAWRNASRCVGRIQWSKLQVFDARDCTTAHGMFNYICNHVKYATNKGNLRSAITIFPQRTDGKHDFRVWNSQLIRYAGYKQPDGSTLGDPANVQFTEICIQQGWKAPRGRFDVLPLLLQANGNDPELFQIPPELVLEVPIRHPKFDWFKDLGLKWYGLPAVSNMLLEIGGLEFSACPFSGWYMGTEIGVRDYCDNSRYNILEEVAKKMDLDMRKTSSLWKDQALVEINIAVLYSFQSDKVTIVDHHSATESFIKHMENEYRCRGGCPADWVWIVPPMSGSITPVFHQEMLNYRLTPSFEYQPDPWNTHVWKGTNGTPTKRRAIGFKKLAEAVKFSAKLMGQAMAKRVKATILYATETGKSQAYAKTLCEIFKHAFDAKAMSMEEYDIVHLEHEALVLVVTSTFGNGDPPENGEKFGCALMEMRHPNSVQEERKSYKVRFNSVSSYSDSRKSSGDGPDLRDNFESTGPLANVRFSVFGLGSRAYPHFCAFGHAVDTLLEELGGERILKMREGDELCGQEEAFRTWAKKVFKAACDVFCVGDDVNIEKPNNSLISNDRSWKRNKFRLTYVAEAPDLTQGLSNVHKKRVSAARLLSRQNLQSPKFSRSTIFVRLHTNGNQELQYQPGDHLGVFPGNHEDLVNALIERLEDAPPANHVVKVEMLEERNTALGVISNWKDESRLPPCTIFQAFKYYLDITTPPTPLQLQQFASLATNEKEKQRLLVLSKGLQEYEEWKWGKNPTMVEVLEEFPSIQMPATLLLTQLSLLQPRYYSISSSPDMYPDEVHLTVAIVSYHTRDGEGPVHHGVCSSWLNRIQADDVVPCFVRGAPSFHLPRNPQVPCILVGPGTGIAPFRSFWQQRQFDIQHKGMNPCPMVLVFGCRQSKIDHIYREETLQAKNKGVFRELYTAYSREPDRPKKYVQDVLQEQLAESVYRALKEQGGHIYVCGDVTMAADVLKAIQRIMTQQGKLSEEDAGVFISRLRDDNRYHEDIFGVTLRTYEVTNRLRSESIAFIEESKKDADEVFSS
# Human NOS-2, sequence (P35228 whole entry): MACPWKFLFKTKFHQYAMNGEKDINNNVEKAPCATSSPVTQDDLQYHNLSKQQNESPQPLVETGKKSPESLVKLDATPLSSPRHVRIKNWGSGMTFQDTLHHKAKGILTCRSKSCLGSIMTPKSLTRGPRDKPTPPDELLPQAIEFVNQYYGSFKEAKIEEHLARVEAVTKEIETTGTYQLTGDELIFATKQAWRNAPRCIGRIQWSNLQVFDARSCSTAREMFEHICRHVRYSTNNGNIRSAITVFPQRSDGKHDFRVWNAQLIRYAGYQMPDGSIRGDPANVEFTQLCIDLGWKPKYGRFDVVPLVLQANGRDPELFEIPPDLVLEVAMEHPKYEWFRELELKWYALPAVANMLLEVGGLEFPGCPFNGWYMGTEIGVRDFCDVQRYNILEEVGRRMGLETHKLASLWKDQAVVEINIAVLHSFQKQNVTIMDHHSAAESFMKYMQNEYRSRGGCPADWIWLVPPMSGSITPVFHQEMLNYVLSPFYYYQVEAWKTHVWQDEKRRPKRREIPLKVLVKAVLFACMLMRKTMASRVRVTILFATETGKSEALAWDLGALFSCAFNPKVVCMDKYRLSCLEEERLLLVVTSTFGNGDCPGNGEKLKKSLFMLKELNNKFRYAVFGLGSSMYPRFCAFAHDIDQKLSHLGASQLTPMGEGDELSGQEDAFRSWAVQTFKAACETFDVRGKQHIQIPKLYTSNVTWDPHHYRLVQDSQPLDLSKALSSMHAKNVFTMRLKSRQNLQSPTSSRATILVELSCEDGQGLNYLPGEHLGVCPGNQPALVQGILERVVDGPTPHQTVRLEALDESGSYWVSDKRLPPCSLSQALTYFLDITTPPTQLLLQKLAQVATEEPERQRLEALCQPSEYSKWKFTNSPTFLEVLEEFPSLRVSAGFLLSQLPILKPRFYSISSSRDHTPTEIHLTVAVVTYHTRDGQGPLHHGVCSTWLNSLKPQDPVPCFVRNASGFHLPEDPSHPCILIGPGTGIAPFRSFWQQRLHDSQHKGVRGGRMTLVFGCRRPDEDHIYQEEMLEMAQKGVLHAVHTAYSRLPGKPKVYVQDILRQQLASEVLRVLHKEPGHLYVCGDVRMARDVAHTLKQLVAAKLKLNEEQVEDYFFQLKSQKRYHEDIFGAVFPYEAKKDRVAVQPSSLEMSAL
SMILES,IC50 (Human NOS-2) [nM],IC50 (Murine NOS-2 (iNOS)) [nM],IC50 (Bovine NOS-3 (eNOS)) [nM],IC50 (Rat NOS-1 (nNOS)) [nM]
"NCCCCc1cc(=O)oc2ccc(Cl)cc12 [Example 57, 4-(4-Aminobutyl)6-chloro-1-benzopyran-2-one]",3600,,,
"Cc1ccc2oc(=O)cc(OCCCN(C)C)c2c1 [Example 23, 4-(3-Dimethylamino-propoxy)-6-methyl-1-benzopyran-2-one]",4700,3000,> 10000,> 10000
"NCCCOc1cc(=O)oc2ccccc12 [Example 19, 4-(3-Amino-propoxy)-1-benzopyran-2-one]",7600,7400,> 10000,9100
"O=c1cc(OCC2CCCNC2)c2cc(Cl)ccc2o1 (stereo not drawn) [Example 33, 6-Chloro-4-(piperidin-3-ylmethoxy)-1-benzopyran-2-one]",,1500,,
"CN(C)CCCOc1cc(=O)oc2ccc(Cl)cc12 [Example 22, 6-Chloro-4-(3-dimethylamino-propoxy)-1-benzopyran-2-one]",4100,1200,> 10000,8000
"NCCCCOc1cc(=O)oc2ccc(Cl)cc12 [Example 31, 4-(4-Amino-butoxy)-6-chloro-1-benzopyran-2-one]",2000,1000,> 10000,> 10000
"NCCCCCOc1cc(=O)oc2ccc(Cl)cc12 [Example 32, 4-(5-Amino-pentyloxy)-6-chloro-1-benzopyran-2-one]",1300,,,
"CN(C)CCCOc1cc(=O)oc2ccccc12 [Example 2, 4-(3-Dimethylamino-propoxy)-1-benzopyran-2-one]",4000,> 10000,> 10000,> 10000
"O=c1cc(OCCC2CCCCN2)c2cc(Cl)ccc2o1 (stereo not drawn) [Example 34, 6-Chloro-4-(2-piperidin-2-yl-ethoxy)-1-benzopyran-2-one]",2000,4200,> 10000,1000

# Results, then the molecule that gave them:
IC50 (Human NOS-2) [nM],IC50 (Murine NOS-2 (iNOS)) [nM],IC50 (Bovine NOS-3 (eNOS)) [nM],IC50 (Rat NOS-1 (nNOS)) [nM],SMILES
100,140,> 10000,360,"NCCCOc1cc(=O)oc2ccc(Br)cc12 [Example 11, 4-(3-Amino-propoxy)-6-bromo-1-benzopyran-2-one]"
510,390,> 10000,500,"N=C(N)NCCCOc1cc(=O)oc2ccc(Cl)cc12 [Example 28, N-[3-(6-Chloro-2-oxo-2H-1-benzopyran-4-yloxy)-propyl]guanidine]"
300,300,> 10000,650,"Cc1ccc2oc(=O)cc(OCCCN)c2c1 [Example 14, 4-(3-Amino-propoxy)-6-methyl-1-benzopyran-2-one]"
94,60,> 10000,560,"NCCCOc1cc(=O)oc2ccc(Cl)cc12 [Example 1, 6-Chloro-4-(3-aminopropoxy)-1-benzopyran-2-one]"
110,250,> 10000,530,"CNCCCOc1cc(=O)oc2ccc(Cl)cc12 [Example 3, 6-Chloro-4-(3-methylamino-propoxy)-1-benzopyran-2-one]"
1100,440,> 10000,1600,"NCCCOc1cc(=O)oc2ccc(F)cc12 [Example 12, 4-(3-Amino-propoxy)-6-fluoro-1-benzopyran-2-one]"

# — US7538233B2, “Coumarins as iNOS inhibitors” (Aventis Pharmaceuticals Inc., priority 2003, dated 2009)
